Data: article PMC10287695, “Non-covalent inhibitors of thioredoxin glutathione reductase with schistosomicidal activity in vivo” (Nature Communications, 2023)
Where “and” joins values, the source holds several entries; their conditions need not be identical. Equal values may be shown once. Read-outs that look alike come from different tables or passages of the source. Marks after values point to notes of the source that are not given here.

Key:
[1] = tested on: S. mansoni juvenile worms (21 days); test: Schistosomicidal activity ex vivo, juvenile worms (21 days); type: cell-based; conditions: for viability at 5 µM / viability at 15 µM / viability at 30 µM: Schistosoma mansoni; for viability at 5 µM / viability at 15 µM / viability at 30 µM / % viability: 23 day S. mansoni worms, 48 HR; for viability at 15 µM: Conc. 15 µM; for viability at 30 µM: Conc. 30 µM; for LD50 ex vivo S. mansoni 21 days: juvenile worms, 48 h exposure
Protocol: Three-week old, female Swiss-Webster mice obtained from the Charles River were housed in the Comparative Research Center of Rush University Medical Center. Mice were infected by percutaneous tail exposure to about 200 S. mansoni or 50 S. japonicum cercaria for adult worms and about 1000 cercaria for juvenile S. mansoni worms through natural transdermal penetration of the cercariae for 1 h[81].
DMSO formulated compounds were diluted with phenol red free M199 medium or RPMI medium for NTS or juvenile and adult worms, respectively, at <1% DMSO final concentrations. NTS, juvenile and adult worms from overnight cultures were tested against compounds in triplicate. Controls were treated with DMSO alone or 5 µM AF as a positive control in appropriate medium. […] Schistosome viabilities in the presence of the compounds were assessed using this formula: % Viability = Averages of Test / Averages of DMSO Control x 100.

TGR = biological target: T1, TGR (Schistosoma mansoni, UniProt Q962Y6); test: Reversibility by jump dilution; type: biochemical; conditions: for % Activity (ID list), D0 / % Inhibition (ID list), D0: D0: diluted 1:100, activity determined immediately; for % Activity (ID list), D0 / % Inhibition (ID list), D0 / % Activity (ID list), D60 / % Inhibition (ID list), D60 / % Activity (ID list) / % Inhibition (ID list): list for plotting; for % Activity (ID list), D60 / % Inhibition (ID list), D60: D60: diluted 1:100, activity determined after 60 min; for Inhibitor (rate), 0 min / % Activity, 0 min: [0, D0]: 15 min preincubation inhibitor + TGR + NADPH, diluted 1:100, then activity determined immediately; for Inhibitor (rate), 0 min / Inhibitor (rate), 60 min / Inhibitor (rate), -15: raw rate; for % Activity, 0 min / % Activity, 60 min / % Activity, -15: relative to DMSO; for Inhibitor (rate), 60 min / % Activity, 60 min: [60, D60]: 15 min preincubation inhibitor + TGR + NADPH, diluted 1:100, then activity determined after 60 min; for Inhibitor (rate), -15 / % Activity, -15: [-15]: 15 min preincubation inhibitor + TGR + NADPH, then activity determined, replicates; for % Activity (ID list) / % Inhibition (ID list): before dilution (-15)
T1 construct: made in house
T1 sequence (Q962Y6 1-598): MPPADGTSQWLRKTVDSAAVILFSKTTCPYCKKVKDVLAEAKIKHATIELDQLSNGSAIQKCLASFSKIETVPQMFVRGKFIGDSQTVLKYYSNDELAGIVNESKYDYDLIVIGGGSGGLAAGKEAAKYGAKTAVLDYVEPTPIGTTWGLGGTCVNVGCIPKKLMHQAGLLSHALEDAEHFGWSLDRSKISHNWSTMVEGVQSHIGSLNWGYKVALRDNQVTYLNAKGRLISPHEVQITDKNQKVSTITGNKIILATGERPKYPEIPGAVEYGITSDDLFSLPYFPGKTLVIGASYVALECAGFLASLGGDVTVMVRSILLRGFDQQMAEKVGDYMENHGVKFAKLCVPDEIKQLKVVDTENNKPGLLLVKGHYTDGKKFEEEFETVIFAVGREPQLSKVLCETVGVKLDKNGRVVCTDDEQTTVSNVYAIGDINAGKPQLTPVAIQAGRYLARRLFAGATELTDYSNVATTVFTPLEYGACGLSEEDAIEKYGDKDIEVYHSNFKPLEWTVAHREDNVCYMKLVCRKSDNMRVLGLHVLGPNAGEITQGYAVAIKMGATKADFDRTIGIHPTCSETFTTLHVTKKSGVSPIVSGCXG
Protocol: A reaction of 370 nM TGR, 100 µM NADPH, and 250 µM inhibitor was incubated for 15 min at room temperature. A 100x dilution of the reaction was made and the activity was determined immediately and after 60 min.

PfTrxR = biological target: T2, PfTrxR (Plasmodium falciparum, UniProt Q25861); test: P. falciparum TrxR enzyme inhibition; type: biochemical
T2 construct: 6-His (N); made in house; host or cells: E. coli BL21 (DE3)
T2 sequence (Q25861 1-541): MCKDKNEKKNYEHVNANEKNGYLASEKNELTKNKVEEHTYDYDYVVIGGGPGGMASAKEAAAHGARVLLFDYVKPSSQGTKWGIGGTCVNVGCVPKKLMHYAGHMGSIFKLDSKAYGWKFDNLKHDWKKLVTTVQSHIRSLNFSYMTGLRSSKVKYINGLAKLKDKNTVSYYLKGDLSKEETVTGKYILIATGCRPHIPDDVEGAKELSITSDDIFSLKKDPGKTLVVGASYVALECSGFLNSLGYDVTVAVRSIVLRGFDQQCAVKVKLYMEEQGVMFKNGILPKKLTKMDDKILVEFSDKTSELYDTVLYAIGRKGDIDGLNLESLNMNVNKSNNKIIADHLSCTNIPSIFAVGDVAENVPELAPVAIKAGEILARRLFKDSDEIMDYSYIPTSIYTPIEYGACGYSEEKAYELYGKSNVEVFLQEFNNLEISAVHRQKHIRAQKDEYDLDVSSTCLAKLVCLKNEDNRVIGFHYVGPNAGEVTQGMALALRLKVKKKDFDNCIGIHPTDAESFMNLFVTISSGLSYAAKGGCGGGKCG
Protocol: Recombinant TGR, human TrxR1, B. malayi (Bm)TrxR and human GR proteins were expressed and purified as described[20],[69],[79]. The codon optimized sequence for P. falciparum (PfTrxR, https://www.ncbi.nlm.nih.gov/protein/CAA60574.1/) with an N-terminal 6-His tag was synthesized and inserted into pET15b (GenScript) and expressed in BL21 (DE3) cells and purified as described for human GR[20]. TGR and TrxR enzyme inhibition assays were performed in triplicate at 25 °C as described[20] in 0.1 M potassium phosphate (pH 7.4), 10 mM EDTA, 100 µM NADPH and 0.01% Tween-20. TGR, human TrxR1 and BmTrxR (all at 4 nM) and PfTrxR (50 nM) were preincubated with the compounds for 15 min. The reaction was started with addition of an equal volume of DTNB (6 mM) and NADPH (100 µM) and the increase in A412 during the first 3 min was recorded. […] The reaction was preincubated for 15 min. Activity was initiated with the addition of 1 mM GSSG and 100 μM NADPH and initial rates of NADPH oxidation were monitored at 340 nm. The reactions were done in triplicate. The IC50 was calculated in GraphPad Prism.

BmTrxR = BmTrxR (Brugia malayi, UniProt A0A1I9G0T9); test: B. malayi TrxR enzyme inhibition; type: biochemical; conditions: for inhibition at 10 µM: 10 µM compound; for inhibition at 25 µM: 25 µM compound
Protocol: Recombinant TGR, human TrxR1, B. malayi (Bm)TrxR and human GR proteins were expressed and purified as described[20],[69],[79]. The codon optimized sequence for P. falciparum (PfTrxR, https://www.ncbi.nlm.nih.gov/protein/CAA60574.1/) with an N-terminal 6-His tag was synthesized and inserted into pET15b (GenScript) and expressed in BL21 (DE3) cells and purified as described for human GR[20]. […] The reaction was started with addition of an equal volume of DTNB (6 mM) and NADPH (100 µM) and the increase in A412 during the first 3 min was recorded. […] Activity was initiated with the addition of 1 mM GSSG and 100 μM NADPH and initial rates of NADPH oxidation were monitored at 340 nm. The reactions were done in triplicate. The IC50 was calculated in GraphPad Prism.

[2] = BmTrxR, mean of 3 replicates, read-out: % inhibition
[3] = BmTrxR, 50 µM compound, mean of 3 replicates, read-out: % inhibition
[4] = read-out: BmTrxR % inhibition at 50 µM, 50 µM, the highest concentration tested

BmTrxR, sequence (A0A1I9G0T9 entry or part of it, added parts left off): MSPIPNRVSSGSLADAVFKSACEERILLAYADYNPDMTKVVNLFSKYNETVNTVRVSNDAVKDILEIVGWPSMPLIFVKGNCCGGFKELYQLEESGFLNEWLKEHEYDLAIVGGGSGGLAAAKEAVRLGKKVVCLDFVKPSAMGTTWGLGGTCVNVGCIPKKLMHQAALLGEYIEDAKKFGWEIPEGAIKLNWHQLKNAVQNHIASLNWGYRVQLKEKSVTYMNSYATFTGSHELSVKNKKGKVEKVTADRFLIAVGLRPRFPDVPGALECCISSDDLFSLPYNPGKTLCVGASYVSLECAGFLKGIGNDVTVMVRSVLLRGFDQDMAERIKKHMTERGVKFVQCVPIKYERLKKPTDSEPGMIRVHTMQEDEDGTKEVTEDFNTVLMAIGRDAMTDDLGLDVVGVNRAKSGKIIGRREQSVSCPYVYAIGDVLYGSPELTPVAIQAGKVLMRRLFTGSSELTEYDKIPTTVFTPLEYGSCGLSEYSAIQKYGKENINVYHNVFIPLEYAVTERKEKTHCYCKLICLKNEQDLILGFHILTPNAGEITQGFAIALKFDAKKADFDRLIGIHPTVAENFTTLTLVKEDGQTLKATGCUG

Row | Compound | viability at 5 µM ([1]; Conc. 5 µM) [%] | viability at 15 µM [1] [%] | viability at 30 µM [1] [%] | LD50 ex vivo S. mansoni 21 days [1] | % Activity (ID list), D0 (TGR) | % Inhibition (ID list), D0 (TGR) | % Activity (ID list), D60 (TGR) | % Inhibition (ID list), D60 (TGR) | % Activity, 0 min (TGR) | % Activity, 60 min (TGR) | Inhibitor (rate), -15 (TGR) | % Activity, -15 (TGR) | % Activity (ID list) (TGR) | % Inhibition (ID list) (TGR) | inhibition at 10 µM (PfTrxR) [%] | inhibition at 25 µM (PfTrxR) [%] | inhibition at 50 µM (PfTrxR) [%] | inhibition at 10 µM (BmTrxR; [2]) [%] | inhibition at 25 µM (BmTrxR; [2]) [%] | inhibition at 50 µM (BmTrxR; [3]) [%] | other results
1 | Cc1oc(C2CCCCC2)nc1C(=O)N[C@@H]1C[C@@H]2C[C@H]([C@H]1C)C2(C)C [Compound 7] | 77.6 | 63.5 | 58.7 | >30^a µM | 98.5% and 102.6% and 100.0% | 1.5% and -2.6% | 100.2% and 98.4% and 96.1% | -0.17% and 1.6% and 3.9% | 98.4664% and 102.604% | 100.17% and 98.4213% and 96.1018% | 0.001091 and 8.088e-5 and -1.437e-5 | 2.42% and 0.1757% | 2.4% and 0.2% and -0.3% | 97.6% and 99.8% and 100.3% | -0.315 | 4.13 | 10.8 | -2.13 | -0.458 | -0.00455 | Inhibitor (rate), 0 min (TGR): 0.04944 and 0.05279; Inhibitor (rate), 60 min (TGR): 0.04706 and 0.04925 and 0.04684; inhibition at 50 µM (BmTrxR; [4]): 11%
2 | C[C@@H]1N=C(c2ccccc2Cl)c2cc([N+](=O)[O-])ccc2NC1=O [MZM, meclonazepam, reference compound] | – | – | – | >50^a µM | – | – | – | – | – | – | – | – | – | – | – | – | – | – | – | – | –
3 | O=C(C1CCCCC1)N1CC(=O)N2CCc3ccccc3C2C1 (centres unmarked) [PZQ, praziquantel] | – | – | – | >50^a µM | – | – | – | – | – | – | – | – | – | – | – | – | – | – | – | – | –
4 | CCc1ccccc1-c1nc(CN[C@@H]2C[C@@H]3C[C@H]([C@H]2C)C3(C)C)c(C)o1 [Compound 2] | 57 | 9.68 | 0.112 | 7.2 ± 0.30 µM | – | – | – | – | – | – | – | – | – | – | -8.06 | -45.1 | -32.7 | 0.63 | 5.59 | 12.9 | PfTrxR % inhibition at 50 µM (PfTrxR; 50 µM, the highest concentration tested): n.i.; inhibition at 50 µM (BmTrxR; [4]): 13%
5 | CC1C(NCc2cn(C3OCC(O)C(O)C3O)c3ccccc23)CC2CC1C2(C)C (centres unmarked) [Compound 9] | – | – | – | – | – | – | – | – | – | – | – | – | – | – | 6.78 | 8.79 | 16.2 | 47.6 | 70.1 | 83.3 | inhibition at 50 µM (PfTrxR; read-out: PfTrxR % inhibition at 50 µM): 16%; IC50 (BmTrxR): 13.7 ± 1.03 µM
6 | C#CCN(Cc1nc(-c2ccccc2)oc1C)[C@@H]1C[C@@H]2C[C@H]([C@H]1C)C2(C)C [Compound 6] | 73.2 | 60.7 | 56.8 | >30^a µM | 75.6% and 75.7% and 80.1% | 24.4% and 24.3% and 19.9% | 78.0% and 78.9% and 78.3% | 22.0% and 21.1% and 21.7% | 75.6216% and 75.6995% and 80.0576% | 78.0175% and 78.8698% and 78.3361% | 0.0007205 and 0.001179 and -0.0005968 | 1.808% and 2.913% and -1.39% | 2.9% and -1.4% | 98.2% and 97.1% and 101.4% | – | – | – | – | – | – | Inhibitor (rate), 0 min (TGR): 0.03741 and 0.03869 and 0.04167; Inhibitor (rate), 60 min (TGR): 0.03652 and 0.03852 and 0.03804
7 | CC(=O)OC[C@H]1O[C@@H]([S-])[C@H](OC(C)=O)[C@@H](OC(C)=O)[C@@H]1OC(C)=O.CCP(CC)CC.[Au+] [AF, auranofin, reference compound] | – | – | – | 0.62 ± 0.01 µM | 1.9% and -0.049% | 98.1% and 100.0% | 3.7% and -3.0% and -2.8% | 96.3% and 103.0% and 102.8% | 1.94% and 1.91% and -0.04934% | 3.69% and -3.0493% and -2.833% | 0.001018 and 0.001002 and 0.001033 | 0.7444% and 0.7656% and 0.7594% | 0.744% and 0.8% and 0.759% | 100.0% | – | – | – | – | – | – | % viability ([1]; Conc. 0.5 µM): 50.0296%; % viability ([1]; Conc. 1 µM): 15.8933%; % viability ([1]; Conc. 2.5 µM): 5.6364%; % viability ([1]; Conc. 5 µM): 0.3335%; reversibility of TGR inhibition (TGR; 250 µM inhibitor, 100-fold jump dilution): irreversible
